The results in this text go back to patent US10704076B2, “Multi-tiered high through-put screen for compounds effective against bacterial biofilm and compounds effective for inhibiting and eradicating bacterial biofilm” (University of Cincinnati, priority 2013, dated 2020).

The term AC50 denotes the concentration giving half of the maximal activity seen.

Assay [1] relates to P. aeruginosa biofilm. Briefly: HTS live biofilm assay (resazurin metabolic activity). The class given is cell-based. The settings on record: Pseudomonas aeruginosa, 10 point dose-response 0.1-50 μM. The source says:
(§1) Each HTS tier consisted of: (i) primary screening, (ii) confirmation screening and (iii) dose-response curve screening. Each tier of HTS included three distinct biological process assays. The first assay was an optical density measurement of bacteria growth in the presence of each compound reported as a total bacteria growth. In the second assay, resazurin solution was used as an indicator of metabolic activity to measure the live bacteria in the biofilms, reported as live biofilm. The final assay was crystal violet staining, which indicated the amount of biofilm formation and the effect of each compound on this process, reported as total biofilm formation.
(§2) Briefly, stationary phase bacteria grown in L-broth were diluted 1:200 into fresh L-broth and 50 μM of each test compound. After 20-24 hours, the optical density (OD560) of each suspension was measured using Zeiss Plate::Vision with a 560 BP filter (560 nm, 2.5% light intensity, 1 mm focus to bottom of plate, and exposure time of 100 ms). To measure bacterial viability in the biofilm, 50 μl of a 5 mg/ml resazurin solution in L-broth was added to each well after washing 3 times with 50 μl of PBS. The plates were then incubated at 37° C. for 30 or 180 min for A. baumannii and P. aeruginosa biofilms, respectively. Fluorescence was measured using Zeiss Plate::Vision at excitation and emission wavelengths of 535 and 580 nm, 100 ms exposure time, 2.5% intensity and a 2 mm focus to the bottom of the biofilms. To assess biofilm formation, plates were washed 3 times with PBS and then 50 μl of 0.01% of crystal violet was added to each well to assess bacterial biofilm formation as described in a similar borosilicate tube assay by O'Toole and Kolter. After incubation at room temperature for 30 min and removal of the crystal violet solution by washing with PBS, 95% ethanol was added to solubilize the crystal violet followed by incubation for 20 min at room temperature. Finally, the optical density of each plate was determined using measured by Zeiss Plate::Vision using the same settings used to measure total bacterial growth. These 3 steps were used in each of the three tiers for the HTS process: (i) single point primary screening at 10 μM, (ii) triplicate confirmation of hits from (i) at 10 μM and (iii) determination of AC50 values in 10 point dose-response at a concentration range of 0.1-50 μM) in hits from (ii). The AC50 represents the concentration of compound that inhibits 50% of bacterial growth, bacterial viability, or biofilm formation. Genedata Screener® Assay Analyzer Software (Ver. 9.0.0 Standard) was used to analyze data from all assay tiers. Compounds with an AC50 of less than 20 μM in one of the biological assays from the dose response screen were subject to additional investigation.
(The colour change of resazurin is a common sign of viable cells or microbes.)

A further assay deals with A. baumannii. Briefly: HTS total bacterial growth assay (optical density OD560). The assay is classed as cell-based, Acinetobacter baumannii. The settings on record: Acinetobacter baumannii, 10 point dose-response 0.1-50 μM, NS* = no sigmoid curve observed, read-out: Total Bacteria Growth AC50.
Excerpt: as §1, §2

The subject of assay [2] is A. baumannii biofilm. Briefly: HTS live biofilm assay (resazurin metabolic activity). The class given is cell-based, Acinetobacter baumannii. As to conditions: Acinetobacter baumannii, 10 point dose-response 0.1-50 μM.
Excerpt: as §1, §2

For assay [3], the system named is A. baumannii biofilm. Briefly: HTS total biofilm formation assay (crystal violet staining). The assay is classed as cell-based, Acinetobacter baumannii. The settings on record: Acinetobacter baumannii, 10 point dose-response 0.1-50 μM.
Excerpt: as §1, §2

The test system of assay [4] is P. aeruginosa biofilm. Described as above. The assay is classed as cell-based, Pseudomonas aeruginosa. The settings on record: Pseudomonas aeruginosa, 10 point dose-response 0.1-50 μM.
Excerpt: as §1, §2

A further assay concerns P. aeruginosa. Briefly: HTS total bacterial growth assay (optical density OD560). The class given is cell-based, Pseudomonas aeruginosa. The settings on record: Pseudomonas aeruginosa, 10 point dose-response 0.1-50 μM, read-out: Total Bacteria Growth AC50.
Excerpt: as §1, §2

The subject of assay [5] is P. aeruginosa biofilm. Description: CLSM, co-culture of bacteria with compound (inhibition of biofilm formation). The class given is cell-based, Pseudomonas aeruginosa. The settings on record: for killing of residential bacteria, co-culture (CLSM, in words): 10 μM; for Co-culture of bacteria with compound: Killing: Y / —. As to the method: (§3) Broad spectrum agents (effective against all three bacterial species) and single agent compounds identified as HTS hits were investigated with CLSM confirmation of inhibition of biofilm formation (culture of bacteria with compounds) or killing of bacteria residing within an established biofilm (compound addition after culturing biofilm). To evaluate inhibition of P. aeruginosa biofilms, bacteria were sub-cultured into 10% L-broth and grown at 37° C. until the OD600 reached 0.25. The bacteria were further diluted 1:100 into a modified 0.5×M63 minimum media (50 mM KH2PO4, 7.5 mM (NH4)2SO4, 9 μM FeSO4, 0.5% casamino acids, 0.2% glucose, and 1 mM MgSO4). A. baumannii biofilms were also grown in 10% L-broth until the OD600 reached 0.05 but diluted 1:10 into 5% L-broth media. S. epidermidis biofilm cultures were grown. Briefly, the bacteria were grown in TSB until the OD600 reached 0.75, and a 1:100 dilution of the bacteria was sub-cultured into phosphate buffered saline (PBS). All of the biofilm bacterial cultures were grown in 96-well plate chambers (MatTek Corp., Ashland, Mass.) in the presence of 10 μM of each compound or DMSO as a control and incubated for 18 hrs at 37° C. To investigate the ability of compounds to kill bacteria within pre-existing biofilms, biofilms were grown under the same conditions, but without test compound. These biofilms were washed once with PBS and incubated an additional 24 hr at 37° C. in PBS containing 300 μM of each compound. All biofilm cultures were then washed twice with 100 μL of PBS and stained using the LIVE/DEAD® BacLight™ Bacterial Viability Kit (Invitrogen). Finally, biofilm images were obtained using a Zeiss LSM510 META Confocal Microscope (Carl Zeiss, Inc., Germany). A 488 nm laser was used in conjunction with a Plan-Apochromat 100×/1.4 Oil DIC objective. Z-stacks were 8 bit and measured 127.3 μm×127.3 μm×16.0 μm in size. The filters used were 505-530 and 620-680 IR, as the excitation and emission wavelengths for red fluorescence are 490 nm and 635 nm, respectively, and 480 nm and 500 nm for green fluorescence. Three dimensional images were generated using the “Projection” ability on LSM Image Browser software (v.1.4.0.121) or Zeiss LSM image browser software version 3.5 (Carl Zeiss, Inc., Germany), and Live/Dead calculations were conducted based upon these images using MacBiophotonics ImageJ following the guidelines in the cell counting guide by C. Labno {Rasband, 1997-2011 #25; Labno, #2} at the University of Chicago Integrated Light Microscopy Core. The thickness of the biofilm was calculated using Comstat software. A hit was defined as a >50% dead to live ratio.
(§4) The CLSM experiment was performed in one or two or all bacteria used in this study depending on its activity. For the validation of HTS hits, 10 μM of compound was added to each bacterial suspension and the resulting biofilm stained with LIVE/DEAD® BacLight™ Bacterial Viability Kit. The images were analyzed to determine the live and dead ratios of biofilm bacteria, the thickness of biofilms, and structural attributes of biofilms.

Assay [6] deals with A. baumannii biofilm. The description is as above. The class given is cell-based, Acinetobacter baumannii. As to the method: as §3, §4
In assay [7] the test system is P. aeruginosa established biofilm. Briefly: CLSM, effect of compound on the pre-existing biofilm. The class given is cell-based, Pseudomonas aeruginosa. The settings on record: 300 μM, 24 hr. As to the method:
as §3, §4

The subject of assay [8] is S. epidermidis established biofilm. Description: Killing of established Se biofilm by compounds Se-1 through Se-16. The settings on record: 300 μM compound, X / O. The assay is classed as cell-based, Staphylococcus epidermidis. The source says:
This Example illustrates efficacy of compounds Se-1 through Se-16 at inhibiting S. epidermidis biofilm formation and/or killing established S. epidermidis biofilms. Detailed methods, materials and data are set forth in Shea, Chloe, U of Cincinnati Masters Thesis “Effectiveness of Novel Compounds at Inhibiting and Killing P. aeruginosa and S. epidermidis Biofilms” published on Mar. 17, 2013, the entire disclosure of which is incorporated herein by this reference. FIG. 8 illustrates effective inhibition of Se biofilm formation. For these experiments, Se was co-cultured with 10 μM of compounds Se-1 through Se-16 (see Table 5 for compound names and Table 6 for compound structures). A-H represents the top view of the Se biofilm, while the sagittal view is shown in I-P. The control Se biofilm is shown in A/I. Se biofilm formation in the presence of 10 μM of compound Se-3, Se-4, Se-13, Se-14, Se-15 or Se-16 as shown in B/J, C/K, D/L, E/M, F/N, G/O, and H/P, respectively. FIG. 9 illustrates effective killing of established Se biofilm. For this experiment, Se biofilms were treated with 300 μM of compounds Se-1 through Se-16. A-H represents the top view of the Se biofilm, while the sagittal view is shown in I-P. The control Se biofilm is shown in A/I. Effective killing was defined as >50% dead bacteria.

Consider `NC1=CC(=O)c2nonc2C1=O` [Compound 2, 5-amino-2,1,3-Benzoxadiazole-4,7-dione], for which the AC50 in the assay with P. aeruginosa biofilm [1] stood at 15.2 µM; with A. baumannii, 2.21 µM; with A. baumannii biofilm [2], 3.21 µM; with A. baumannii biofilm [3] it was 3.15 µM; in the assay on P. aeruginosa biofilm [4], 1.43 µM; with P. aeruginosa it was 9.09 µM. For the same molecule, the “killing of residential bacteria, co-culture (CLSM, in words)” value in the assay on P. aeruginosa biofilm [5] and in the assay with A. baumannii biofilm [6] (10 μM) was “effectively killed the residential bacteria” throughout. Besides, the “Co-culture of bacteria with compound: Killing” value in the assay with P. aeruginosa biofilm [5] (CLSM, 10 μM compound, 18 hrs) is “Y (A hit was defined as a >50% dead to live ratio)”; in the assay on A. baumannii biofilm [6] (CLSM, 10 μM compound, 18 hrs, Y / —), “Y (A hit was defined as a >50% dead to live ratio)”.
For `CC(C)(C)n1cc(C(=O)O)c(=O)c2cc(F)c(N3CCN(C(=S)S)CC3)nc21` [Compound 9, 1-(1,1-dimethylethyl)-1,4-dihydro-6-fluoro-4-oxo-7-(4-dithiocarboxypiperazin-1-yl)-1,8-Naphthyridinyl-3-carboxylic acid], the “killing of established P. aeruginosa biofilm (CLSM, in words)” value in assay [7] is reported as “failed to kill bacteria within a biofilm”. Further, the AC50 with P. aeruginosa biofilm [1] is 8.14 µM; in the assay on P. aeruginosa biofilm [4] it was 3.6 µM; with P. aeruginosa, 27.7 µM. For the same molecule, the “Co-culture of bacteria with compound: Inhibit biofilm formation” value with P. aeruginosa biofilm [5] (CLSM, 10 μM compound, 18 hrs) is given as “failed to inhibit biofilm formation”.
Turning to `O=C(O)c1cn(-c2ccc(F)cc2F)c2nc(N3CCC(O)CC3)c(F)cc2c1=O` [Compound 14, 1-(2,4-difluorophenyl)-6-fluoro-1,4-dihydro-4-oxo-7-(4-hydroxy-1-piperidinyl)-1,8-Naphthyridine-3-carboxylic acid], the figures for the AC50 in the assay with P. aeruginosa biofilm [1], in the assay on P. aeruginosa biofilm [4] and in the assay with P. aeruginosa were 80.1 µM, 13 µM and 13.6 µM, respectively. Moreover, the “killing of residential bacteria, co-culture (CLSM, in words)” value in the assay with P. aeruginosa biofilm [5] is listed as “lethal to residential bacteria”. Further, the “Co-culture of bacteria with compound: Killing” value in the assay on P. aeruginosa biofilm [5] (CLSM, 10 μM compound, 18 hrs) was “Y (A hit was defined as a >50% dead to live ratio)”.
For the molecule `CN(C)c1ccc(CN2CCN(C(=O)Nc3ccc(C(F)(F)F)cc3)CC2)cc1` [Se3, 4-{[4-(dimethylamino]phenyl]methyl}-N-[4-(trifluoromethyl]phenyl]piperazine-1-carboxamide], in [8], the Killing result was “X (Effective killing was defined as >50% dead bacteria)”.
The same measure, in the same setting: for `CCCCCCCCCCCCOCC[N+](CCO)(CCO)Cc1ccccc1` [Se4, 2-dodecoxyethyl-bis(2-hydroxyethyl)-(phenylmethyl)ammonium] the value was “X (Effective killing was defined as >50% dead bacteria)”; for `O=C(Nc1ccc(Cl)cc1)Nc1nnc(C(F)(F)F)s1` [Se10, 1-(4-chlorophenyl)-3-[5-(trifluoromethyl)-1,3,4-thiadiazol-2-yl]urea], “X (Effective killing was defined as >50% dead bacteria)”; for `N#C/C(=N\Nc1ccc(OC(F)(F)F)cc1)C(=O)c1cccs1` [Se12, (2E]-3-keto-3-(2-thienyl]-2-[[4-(trifluoromethoxy)phenyl]hydrazono]propionitrile], “X (Effective killing was defined as >50% dead bacteria)”.
On to `CN(C)c1ccc(C(=C2C=CC(=[N+](C)C)C=C2)c2ccc(N(C)C)cc2)cc1` [Se13, [4-[bis(4-dimethylaminophenyl]methylene]-1-cyclohexa-2,5-dienylidene]-dimethyl-ammonium], for which, in assay [8], the Killing entry is “X (Effective killing was defined as >50% dead bacteria)”.
As for `CCc1c(C)[nH]c(CC(=O)O)c1C` [Se14, 2-(4-ethyl-3,5-dimethyl-1H-pyrrol-2-yl]acetic acid], in assay [8], the Killing entry is “X (Effective killing was defined as >50% dead bacteria)”.
On the same count and under the same terms, for `O=C(Nc1cccc(F)c1)c1ccccc1NS(=O)(=O)c1ccc(Br)cc1` [Se15, 2-[(4-bromophenyl)sulfonylamino]-N-(3-fluorophenyl)benzamide] the value was “X (Effective killing was defined as >50% dead bacteria)”.
